Measurements as given in US9138466B2, “Factor H for transplantation” (Baxter International Inc., priority 2013, dated 2015).
“And” between values parts separate entries of the source, which are not always exact repeats. Equal entries are not always repeated. Where two headings read alike, the source gives them in different places. Marks after values point to notes of the source that are not given here.

Key:
Type in all cases: in vivo
[1] = tested on: collagen antibody-induced arthritis in Balb C mice; test: Mouse CAIA, histopathology of hind limbs (ankle, H & E) (Example 4)
[2] = Mouse CAIA, body weight and tolerability (Example 4)
Description: Balb C mice (n=10 per cohort) were used to determine the efficacy of Factor H (FH) during transplant rejection. The mice were treated with ArthritoMAb (anti-collagen) antibody cocktail (2 mg, i.v.) on day 1, followed 7 days later with an injection of LPS (50 μg, i.p.). On day 8, hind paw volumes were measured for each animal and distributed to various treatment groups.
Hind paw volumes were measured on day 8, 11, 12, 13, 15, 19 and 22 (endpoint). The age at start date was 7 to 9 weeks. Body weights were measured bi-weekly to the endpoint (Table 4). At the endpoint, tissue samples were processed for histology and submitted to a pathologist for independent analysis. Sampling 1 was performed at the endpoint. The hind limbs were preserved in 10% formalin. Sampling 2 was performed at the endpoint for group 4 animals. Blood was collected by terminal cardiac puncture. The blood was processed for anti-coagulant. The kidneys were additionally preserved in formalin and followed with 70% EtOH. Samples were scored for inflammation, pannus (granulation tissue), cartilage damage, bone resorption and exostosis (Table 5).

[3] = tested on: collagen antibody-induced arthritis in Balb C mice; test: Mouse CAIA, clinical score (Example 4); design: key to Mean Maximum Clinical Score: scored 0 to 60, sum of 4 limbs
[4] = tested on: collagen antibody-induced arthritis in Balb C mice; test: Mouse CAIA, hind paw volume / footpad swelling (Example 4); design: Mean Disease Burden / Hind Limb Volume, Mean Diff. / Total Disease, Mean Diff.: unit not given here; settings: for Total Footpad Thickness, Day of Study 8: day 8; for Total Footpad Thickness, Day of Study 11: day 11; for Total Footpad Thickness, Day of Study 12: day 12; for Total Footpad Thickness, Day of Study 13: day 13; for Total Footpad Thickness, Day of Study 15: day 15; for Total Footpad Thickness, Day of Study 19: day 19; for Total Footpad Thickness, Day of Study 22: day 22; for % Disease Suppression: footpad thickness AUC vs vehicle; for Total Disease Burden (AUC): footpad thickness days 8-22, in mL·day
[5] = Dunn's Multiple Comparison Test, G1 vehicle vs treatment
[6] = ankle, group mean, score 0 = normal to 5 = severe
[7] = ankle, individual animal, score 0 = normal to 5 = severe
[8] = ankle, individual animal, score 0 = normal to 5 = severe, listed as Group 2
[9] = Dunnett's Multiple Comparison Test, G1 vehicle vs treatment
[10] = Dunnett's Multiple Comparison Test, vehicle vs treatment

## C[C@@H]1C[C@H]2[C@@H]3CCC4=CC(=O)C=C[C@]4(C)[C@@]3(F)[C@@H](O)C[C@]2(C)[C@@]1(O)C(=O)CO [Dexamethasone]
[1]
  Score From H & E, Bone Resorption: 0.8 ± 0.9
[1]; [5]
  Cartilage, Difference in rank sum: 9.25
  Composite, Difference in rank sum: 14.05
  Composite, Summary: * (*= P < 0.05)
  Exostosis, Difference in rank sum: 13.1
  Exostosis, Summary: ** (**= P < 0.01)
  Inflammation, Difference in rank sum: 14.95
  Inflammation, Summary: ** (**= P < 0.01)
  Pannus, Difference in rank sum: 11.4
[1]; ankle, group mean
  Composite Histopathaligy Score: 0.2 ± 0.1
[1]; [6]
  Score From H & E, Cartilage Damage: 0.9 ± 0.8
  Score From H & E, Inflammation: 0.3 ± 0.1
  Score From H & E, Pannus: 0.1 ± 0.1
  Score From H & E, Periosteal Exostotic Changes: 0.9 ± 0.8
[1]; [7]
  Score From H & E, Bone Resorption: 0
  Score From H & E, Cartilage Damage: 0
  Score From H & E, Periosteal Exostotic Changes: 0
[1]; [8]
  Score From H & E, Inflammation: 0 (9×) and 1
  Score From H & E, Pannus: 1 and 0 (9×)
[1]; ankle, individual animal, listed as Group 2
  Composite Histopathaligy Score: 3 and 0 (8×) and 1
[1]; histopathology summary, graded 1-5, vehicle 0.6 ± 0.3
  Bone Resorption: 0 ± 0^ns
[1]; histopathology summary, graded 1-5, vehicle 1.0 ± 0.3
  Pannus: 0.1 ± 0.1^ns
[1]; histopathology summary, graded 1-5, vehicle 2.0 ± 0.5
  Inflammation: 0.1 ± 0.1
[1]; histopathology summary, graded 1 to 5, vehicle 2.6 ± 0.5
  Exostosis: 0 ± 0
[1]; histopathology summary, vehicle 0.5 ± 0.2
  Cartilage Damage: 0 ± 0^ns
[1]; histopathology summary, vehicle 6.7 ± 1.7
  Composite Score: 0.2 ± 0.1
[2]; day 1, group mean n=10, before dosing start (day 8)
  Body Weight, Wt (g), Mean: 17.7 g
[2]; day 5, group mean n=10, before dosing start (day 8)
  Body Weight, Wt (g), Mean: 17.9 g
[2]; day 8, group mean n=10
  Body Weight, Wt (g), Mean: 16.3 g
[2]; day 12, group mean n=10
  Body Weight, Wt (g), Mean: 16.8 g
[2]; day 15, group mean n=10
  Body Weight, Wt (g), Mean: 16.7 g
[2]; day 19, group mean n=10
  Body Weight, Wt (g), Mean: 16.5 g
[2]; day 22, group mean n=10
  Body Weight, Wt (g), Mean: 16.5 g
[2]; lowest group mean body weight as % change from day 1, vehicle −8.0%
  Mean Body Weigh at Nadir: −7.7%
[3]; [5]
  Clinical Score, Difference in rank sum: 23.95
  Clinical Score, Summary: *** (***= P < 0.001)
[3]; day 8, group mean n=10
  Clinical score, Mean: 4.00
[3]; day 8, individual animal
  Clinical score: 5 (2×) and 10 (3×) and 0 (5×)
[3]; day 11, group mean n=10
  Clinical score, Mean: 0.10
[3]; day 11, individual animal
  Clinical score: 0 (9×) and 1
[3]; day 12, group mean n=10
  Clinical score, Mean: 5.70
[3]; day 12, individual animal
  Clinical score: 0 (3×) and 10 (4×) and 5 (2×) and 7
[3]; day 13, group mean n=10
  Clinical score, Mean: 6.00
[3]; day 13, individual animal
  Clinical score: 0 (4×) and 10 (6×)
[3]; day 15, group mean n=10
  Clinical score, Mean: 0.00
[3]; day 15, individual animal
  Clinical score: 0
[3]; day 19, group mean n=10
  Clinical score, Mean: 0.00
[3]; day 19, individual animal
  Clinical score: 0
[3]; day 22, group mean n=10
  Clinical score, Mean: 0.00
[3]; day 22, individual animal
  Clinical score: 0
[3]; group line 'Mean', day of study
  Day (of Max Clin Score), Mean: 12.00
[3]; group mean n=10
  Max Clin Score, Mean: 9.20
[3]; individual animal
  Max Clin Score: 5 and 10 (8×) and 7
[3]; individual animal, day of study
  Day (of Max Clin Score): 8 (4×) and 13 (2×) and 12 (4×)
[3]; scored from 0 to 60, sum of 4 limbs, vehicle 45.4
  Mean Maximum Clinical Score: 9.2***
[4]; AUC of combined footpad volume over baseline, days 8 to 22, group mean, vehicle 1.93
  Mean Disease Burden: −0.32***
[4]; [9]
  Total Disease, 95% CI of diff: 1.50 to 3.00
  Total Disease, Mean Diff.: 2.25
  Total Disease, Summary: *** (***= P < 0.001)
  Total Disease, q: 7.36
[4]; [10]
  Hind Limb Volume, 95% CI of diff: 0.09687 to 0.2080
  Hind Limb Volume, Mean Diff.: 0.1524
  Hind Limb Volume, Summary: *** (***= P < 0.001)
  Hind Limb Volume, q: 6.877
[4]; group mean, n 10
  Total Footpad Thickness, Day of Study 8: 0.35 mL
  Total Footpad Thickness, Day of Study 11: 0.32 mL
  Total Footpad Thickness, Day of Study 12: 0.34 mL
  Total Footpad Thickness, Day of Study 13: 0.33 mL
  Total Footpad Thickness, Day of Study 15: 0.31 mL
  Total Footpad Thickness, Day of Study 19: 0.34 mL
  Total Footpad Thickness, Day of Study 22: 0.31 mL
  % Disease Suppression: 116.49%
  Total Disease Burden (AUC): −0.32
[4]; individual animals (A# 1-10)
  Total Footpad Thickness, Day of Study 8: 0.42 mL and 0.39 mL (2×) and 0.37 mL and 0.35 mL and 0.34 mL and 0.33 mL and 0.31 mL (2×) and 0.3 mL
  Total Footpad Thickness, Day of Study 11: 0.30 mL and 0.34 mL and 0.32 mL (3×) and 0.3 mL (3×) and 0.35 mL and 0.31 mL
  Total Footpad Thickness, Day of Study 12: 0.34 mL (4×) and 0.28 mL and 0.35 mL and 0.32 mL and 0.31 mL and 0.39 mL and 0.37 mL
  Total Footpad Thickness, Day of Study 13: 0.31 mL (2×) and 0.3 mL (2×) and 0.36 mL and 0.38 mL (2×) and 0.33 mL and 0.35 mL and 0.29 mL
  Total Footpad Thickness, Day of Study 15: 0.37 mL and 0.33 mL and 0.29 mL (3×) and 0.38 mL and 0.26 mL and 0.3 mL (2×) and 0.27 mL
  Total Footpad Thickness, Day of Study 19: 0.35 mL (4×) and 0.28 mL and 0.3 mL and 0.38 mL and 0.37 mL and 0.32 mL and 0.0 mL
  Total Footpad Thickness, Day of Study 22: 0.39 mL and 0.42 mL and 0.3 mL and 0.32 mL and 0.29 mL (2×) and 0.35 mL (2×) and 0.31 mL and 0.25 mL
  % Disease Suppression: 139.7% and 129.0% and 162.5% and 125.0% and 114.5% and 102.9% and 104.7% and 87.3% and 96.1% and 101.3%
  Total Disease Burden (AUC): −0.77 and −0.51 and −1.21 and −0.54 and −0.28 and −0.06 and −0.09 and 0.25 and 0.10 and −0.02
[4]; mean combined foot pad volume, day 8 vs median day of maximal swelling, vehicle 0.21
  Maximum Δ Mean Volume: 0.03*** ml
[4]; percent decrease in total disease burden relative to vehicle
  % Disease Suppression (vs Vehicle): 116.5%
